Laboratory results taken from PubChem BioAssay (NCI).
Values joined by “and” are separate entries in the source; they are usually repeats but may differ in a detail not shown here. Equal values may be shown once.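 Dose response: 5 concentrations. Exposure: 48 h. Format: 96-well plates. Endpoint: linear interpolation; highest concentration if not reached. GI50: concentration for 50% inhibition of growth. TGI is the concentration that stops growth completely.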

Columns and labels:
Assay in all cases: growth of human tumour cells (NCI), 48 h
HOP-18 NSCLC = system: HOP-18 NSCLC
HT29 colon = system: HT29 colon
KM20L2 colon = system: KM20L2 colon
NCI-H226 lung = system: NCI-H226 lung
SN12C renal = system: SN12C renal
SNB-78 CNS = system: SNB-78 CNS
HL-60(TB) leukemia = system: HL-60(TB) leukemia
MCF7 breast = system: MCF7 breast
OVCAR-4 ovarian = system: OVCAR-4 ovarian
SF-268 CNS = system: SF-268 CNS
786-0 renal = system: 786-0 renal
ACHN renal = system: ACHN renal

## O=C1C=CC(=O)c2c(O)c(N3CCN(CCOCCO)CC3)c(Cl)c(O)c21
HOP-18 NSCLC
  TGI: 2.73 µM
HT29 colon
  GI50: 0.42 µM and 0.592 µM and 0.288 µM
  TGI: 1.66 µM and 1.61 µM and 1.07 µM
KM20L2 colon
  TGI: 2.07 µM
NCI-H226 lung
  GI50: 2.69 µM
  TGI: 4.68 µM [middle of 4 runs]
SN12C renal
  TGI: 2.07 µM [middle of 4 runs]
SNB-78 CNS
  TGI: 1.35 µM

## Cc1csc(NC(=NCCN2CCOCC2)Nc2nc(C)cs2)n1
HL-60(TB) leukemia
  TGI: > 100 µM
HOP-18 NSCLC
  TGI: > 100 µM
HT29 colon
  TGI: > 100 µM
KM20L2 colon
  TGI: > 100 µM
MCF7 breast
  TGI: > 100 µM
NCI-H226 lung
  TGI: > 100 µM
OVCAR-4 ovarian
  TGI: > 100 µM
SF-268 CNS
  TGI: > 100 µM
SN12C renal
  TGI: > 100 µM
SNB-78 CNS
  TGI: > 100 µM

## CC1(C2CCC3(C)OC3C2)CO1 (stereo not given)
786-0 renal
  TGI: > 100 µM
ACHN renal
  TGI: > 100 µM
HL-60(TB) leukemia
  TGI: > 100 µM
HOP-18 NSCLC
  TGI: > 100 µM
HT29 colon
  TGI: > 100 µM
KM20L2 colon
  TGI: > 100 µM
NCI-H226 lung
  TGI: > 100 µM
OVCAR-4 ovarian
  TGI: > 100 µM
SF-268 CNS
  TGI: > 100 µM
SN12C renal
  TGI: > 100 µM
SNB-78 CNS
  TGI: > 100 µM

## C#CCC1(C(=O)OCC)C(=O)c2ccccc2N(C)C1=O (stereo not given)
ACHN renal
  TGI: > 100 µM
HL-60(TB) leukemia
  TGI: > 100 µM
HOP-18 NSCLC
  TGI: > 100 µM
HT29 colon
  TGI: > 100 µM
KM20L2 colon
  TGI: > 100 µM
NCI-H226 lung
  TGI: > 100 µM
SF-268 CNS
  TGI: > 100 µM
SN12C renal
  TGI: > 100 µM
SNB-78 CNS
  TGI: > 100 µM

## S=C(NCc1ccccc1)N/N=C/c1ccccn1
786-0 renal
  TGI: > 65.3 µM
ACHN renal
  TGI: > 56.1 µM
HL-60(TB) leukemia
  TGI: 0.183 µM
HT29 colon
  TGI: > 100 µM
MCF7 breast
  TGI: > 100 µM
NCI-H226 lung
  TGI: 17.7 µM
OVCAR-4 ovarian
  TGI: > 100 µM
SF-268 CNS
  TGI: > 91.4 µM
SN12C renal
  TGI: > 100 µM

## O=C(/C=C/c1cccs1)c1ccccc1Cl
786-0 renal
  TGI: 27.8 µM
ACHN renal
  TGI: 29.4 µM
HL-60(TB) leukemia
  TGI: 30.4 µM
HT29 colon
  TGI: 42.5 µM
MCF7 breast
  TGI: 18.2 µM
NCI-H226 lung
  TGI: > 65.7 µM
OVCAR-4 ovarian
  TGI: 26.8 µM
SF-268 CNS
  TGI: 26.4 µM
SN12C renal
  TGI: 30.2 µM

## Nc1nc(Cl)cc(NCC2(O)CCCC2)n1
786-0 renal
  TGI: > 100 µM
ACHN renal
  TGI: > 100 µM
HL-60(TB) leukemia
  TGI: > 100 µM
HT29 colon
  TGI: > 100 µM
MCF7 breast
  TGI: > 100 µM
NCI-H226 lung
  TGI: > 100 µM
OVCAR-4 ovarian
  TGI: > 100 µM
SF-268 CNS
  TGI: > 100 µM
SN12C renal
  TGI: > 100 µM

## CC1OC2OC3C(OCC(O)C3O)OC(=O)[C@]34CCC(C)(C)CC3C3=CCC5[C@@]6(C)C[C@H](O)[C@H](OC7OC(CO)C(O)C(O)C7OC7OCC(OC(=O)CC(C)(O)CC(=O)OC1C(OC1OC(CO)C(O)C(O)C1O)C2O)C(O)C7O)[C@@](C)(CO)C6CC[C@@]5(C)[C@]3(C)CC4 (stereo not given in full)
786-0 renal
  TGI: 15.5 µM
ACHN renal
  TGI: 17.9 µM
HL-60(TB) leukemia
  TGI: 6.29 µM
HT29 colon
  TGI: 19.4 µM
MCF7 breast
  TGI: 23.6 µM
NCI-H226 lung
  TGI: 34 µM
OVCAR-4 ovarian
  TGI: 17.1 µM
SF-268 CNS
  TGI: 22.2 µM
SN12C renal
  TGI: 23.3 µM

## CC(C)(C)C1CC[C@H](O)[C@H]([C@H](O)CC2CC(=O)N(c3ccccc3)C(=O)C2)C1 (stereo not given in full)
786-0 renal
  TGI: > 100 µM
ACHN renal
  TGI: > 100 µM
HL-60(TB) leukemia
  TGI: > 100 µM
HT29 colon
  TGI: > 100 µM
MCF7 breast
  TGI: > 100 µM
NCI-H226 lung
  TGI: > 100 µM
OVCAR-4 ovarian
  TGI: > 100 µM
SF-268 CNS
  TGI: > 100 µM
SN12C renal
  TGI: > 100 µM

## NCCOCC(N)C(=O)O (stereo not given)
786-0 renal
  TGI: > 100 µM
ACHN renal
  TGI: > 100 µM
HL-60(TB) leukemia
  TGI: > 100 µM
HT29 colon
  TGI: > 100 µM
MCF7 breast
  TGI: > 100 µM
NCI-H226 lung
  TGI: > 100 µM
OVCAR-4 ovarian
  TGI: > 100 µM
SF-268 CNS
  TGI: > 100 µM
SN12C renal
  TGI: > 100 µM

## CC(=O)O[C@H]1CC[C@@]2(C)[C@H](CC[C@@H]3[C@@H]2CC[C@]2(C)[C@@H](c4ccc(=O)oc4)C[C@H]4O[C@]342)C1
HL-60(TB) leukemia
  TGI: 0.592 µM
HOP-18 NSCLC
  TGI: 9.72 µM
HT29 colon
  TGI: 12.7 µM
KM20L2 colon
  TGI: 12.5 µM
MCF7 breast
  TGI: 22.1 µM
NCI-H226 lung
  TGI: 7.75 µM
OVCAR-4 ovarian
  TGI: 3.86 µM
SF-268 CNS
  TGI: 1.29 µM
SN12C renal
  TGI: 9.49 µM
SNB-78 CNS
  TGI: 4.8 µM

## CN1C(=O)C(O)CC1c1cccc(C(F)(F)F)c1 (stereo not given)
786-0 renal
  TGI: > 100 µM
ACHN renal
  TGI: > 100 µM
HL-60(TB) leukemia
  TGI: > 100 µM
HT29 colon
  TGI: > 100 µM
MCF7 breast
  TGI: > 100 µM
NCI-H226 lung
  TGI: > 100 µM
OVCAR-4 ovarian
  TGI: > 100 µM
SF-268 CNS
  TGI: > 100 µM
SN12C renal
  TGI: > 100 µM

## O=C(CC1Sc2ccccc2NC1=O)Nc1ccc(Cl)cc1 (stereo not given)
ACHN renal
  TGI: > 100 µM
HL-60(TB) leukemia
  TGI: > 100 µM
HOP-18 NSCLC
  TGI: > 100 µM
HT29 colon
  TGI: > 100 µM
KM20L2 colon
  TGI: > 100 µM
NCI-H226 lung
  TGI: > 100 µM
OVCAR-4 ovarian
  TGI: 47.3 µM
SF-268 CNS
  TGI: > 100 µM
SN12C renal
  TGI: > 100 µM
SNB-78 CNS
  TGI: > 100 µM

## COC(=O)[C@@H]1CN(C(=O)c2ccccc2)C(=O)N1C(=O)OCc1ccccc1
786-0 renal
  TGI: > 100 µM
ACHN renal
  TGI: > 100 µM
HL-60(TB) leukemia
  TGI: > 100 µM
HT29 colon
  TGI: > 100 µM
MCF7 breast
  TGI: > 100 µM
NCI-H226 lung
  TGI: > 100 µM
OVCAR-4 ovarian
  TGI: > 100 µM
SF-268 CNS
  TGI: > 100 µM
SN12C renal
  TGI: > 100 µM

## O=C(c1ccco1)N(C(=S)OC12CC3CC(CC(C3)C1)C2)c1ccccc1
786-0 renal
  TGI: 93.4 µM
ACHN renal
  TGI: 83.6 µM
HL-60(TB) leukemia
  TGI: 63.6 µM
HT29 colon
  TGI: > 100 µM
MCF7 breast
  TGI: 85.3 µM
NCI-H226 lung
  TGI: > 100 µM
OVCAR-4 ovarian
  TGI: > 100 µM
SF-268 CNS
  TGI: > 100 µM
SN12C renal
  TGI: 62.8 µM

## CC(=O)CC(=O)CCC(=O)O
ACHN renal
  TGI: > 100 µM
HL-60(TB) leukemia
  TGI: > 100 µM
HOP-18 NSCLC
  TGI: > 100 µM
HT29 colon
  TGI: > 100 µM
KM20L2 colon
  TGI: > 100 µM
NCI-H226 lung
  TGI: > 100 µM
SF-268 CNS
  TGI: > 100 µM
SN12C renal
  TGI: > 100 µM
SNB-78 CNS
  TGI: > 100 µM

## c1ccc(-c2nnn(CCN3CCCCC3)n2)cc1
786-0 renal
  TGI: > 100 µM
ACHN renal
  TGI: > 100 µM
HL-60(TB) leukemia
  TGI: > 100 µM
HT29 colon
  TGI: > 100 µM
MCF7 breast
  TGI: > 100 µM
NCI-H226 lung
  TGI: > 100 µM
OVCAR-4 ovarian
  TGI: > 100 µM
SF-268 CNS
  TGI: > 100 µM
SN12C renal
  TGI: > 100 µM

## CS(=O)(=O)NC12CCC(c3ccccc31)c1ccccc12
786-0 renal
  TGI: > 100 µM
ACHN renal
  TGI: > 100 µM
HL-60(TB) leukemia
  TGI: > 100 µM
HT29 colon
  TGI: > 100 µM
MCF7 breast
  TGI: > 100 µM
NCI-H226 lung
  TGI: > 100 µM
OVCAR-4 ovarian
  TGI: > 100 µM
SF-268 CNS
  TGI: > 100 µM
SN12C renal
  TGI: > 100 µM

## COc1ccc(-c2cc(C(O)C3CCCCN3)c3ccccc3n2)cc1 (stereo not given)
786-0 renal
  TGI: 20.6 µM
ACHN renal
  TGI: 24.4 µM
HL-60(TB) leukemia
  TGI: 26.4 µM
HT29 colon
  TGI: 11.5 µM
MCF7 breast
  TGI: 14.2 µM
NCI-H226 lung
  TGI: 20.9 µM
OVCAR-4 ovarian
  TGI: 27.5 µM
SF-268 CNS
  TGI: 27.7 µM
SN12C renal
  TGI: 23.7 µM

## N/C(=N\Nc1ccc(S(N)(=O)=O)cc1)c1cnccn1
786-0 renal
  TGI: > 100 µM
ACHN renal
  TGI: > 100 µM
HL-60(TB) leukemia
  TGI: > 100 µM
HT29 colon
  TGI: > 100 µM
MCF7 breast
  TGI: > 100 µM
NCI-H226 lung
  TGI: > 100 µM
OVCAR-4 ovarian
  TGI: > 100 µM
SF-268 CNS
  TGI: > 100 µM
SN12C renal
  TGI: > 100 µM

## CC(C)C1(O)C(=O)N(c2c(F)c(F)c(F)c(F)c2F)C(=S)N1CCSc1ccccc1 (stereo not given)
786-0 renal
  TGI: 33.3 µM
ACHN renal
  TGI: 31.3 µM
HL-60(TB) leukemia
  TGI: 29.2 µM
HT29 colon
  TGI: 32.5 µM
MCF7 breast
  TGI: 31.7 µM
NCI-H226 lung
  TGI: 38.7 µM
OVCAR-4 ovarian
  TGI: 29.1 µM
SF-268 CNS
  TGI: 33.2 µM
SN12C renal
  TGI: 29.3 µM

## C=CC1CN2CCC1CC2C(O)c1ccnc2ccccc12 (stereo not given)
786-0 renal
  TGI: > 100 µM
ACHN renal
  TGI: > 100 µM
HL-60(TB) leukemia
  TGI: > 100 µM
HT29 colon
  GI50: > 100 µM
  TGI: > 100 µM
MCF7 breast
  GI50: 5.05 µM
  TGI: > 100 µM
NCI-H226 lung
  TGI: > 100 µM
OVCAR-4 ovarian
  GI50: > 100 µM
  TGI: > 100 µM
SF-268 CNS
  TGI: > 100 µM
SN12C renal
  TGI: > 100 µM

## O=C1C=CC(=O)c2c(Cl)ccc(O)c21
HL-60(TB) leukemia
  TGI: 18.5 µM
HOP-18 NSCLC
  TGI: 33.4 µM
HT29 colon
  TGI: 44.9 µM
KM20L2 colon
  TGI: 18.5 µM
MCF7 breast
  TGI: 31.1 µM
NCI-H226 lung
  TGI: > 100 µM
OVCAR-4 ovarian
  TGI: 32.5 µM
SF-268 CNS
  TGI: 33.4 µM
SN12C renal
  TGI: 39 µM
SNB-78 CNS
  TGI: 41.2 µM
